Tested on: CK2α protein
Assay: Western blot of CK2α protein in lung of asthma-induced mice
Format: in vivo
Description: Also, on days 21 and 28 from the experimental starting date, the mice were put into a plastic box (Plexiglas (Rohm & Haas, Philadelphia, Pa.) exposure chamber; 24.5 cm×40.5 cm×15.0 cm), and 1.5% ovalbumin was evaporated using an ultrasonic nebulizer (NE-U12; output 0.8 mL/min; Omron, Japan), and injected into the box for 30 minutes so that the mice inhaled the evaporated ovalbumin (secondary challenge).
A tissue was extracted from each of the mice manufactured in Experimental Method 1, and finely ground to a cell level. Thereafter, the cells were lysed in a cell lysis buffer containing a protease inhibitor to obtain a cell lysate. The cell lysate was centrifuged to obtain protein. Then, an equivalent amount of the proteins obtained from the cells were loaded on an SDS-PAGE gel and electrophoresed. The proteins present in the electrophoresed gel were transferred to a PVDF membrane. The PVDF membrane was washed, and added to a blocking buffer in which 5% skim milk was included in a TBS-T buffer, and incubated at room temperature. Then, the PVDF membrane was incubated at room temperature with an antibody diluted 1:1,000 in a TBS-T buffer containing 3% BSA. […] The PVDF membrane was washed three times with a TBS-T buffer, and visualized and quantified using an ECL Western blotting detection reagent. […]
Specifically, the secondary challenge (ovalbumin injection) was performed according to the method described above in Experimental Method 1, and the lungs were extracted after an hour, and then measured according to the method described above in Experimental Method 7. […] Also, the level of TNF-α corresponding to an NK-κB-dependent cytokine was measured by ELISA according to the method described above in Experimental Method 4. […]
The secondary challenge (ovalbumin injection) was performed according to the method described above in Experimental Method 1, and the lungs were extracted after 1 or 2 hours, and then measured according to the method described above in Experimental Method 7. […]

## CC(=O)NC(=O)CC[C@H](NC(C)=O)C(=O)O [Preparation Example 3, 2,5-diacetamido-5-oxopentanoic acid]
400 μg/kg/day with siRNA specific to MKP-1, FIG. 9
  effect for reducing the level of CK2α: not observed
Oral daily 400 μg/kg/day, lungs extracted an hour after secondary challenge, FIG. 9A
  level of the CK2α protein: decreased

From patent publication US20230026277A1, “COMPOSITION FOR PREVENTION, ALLEVIATION, OR TREATMENT OF RESPIRATORY DISEASE” (MICROX CO., LTD., priority 2019, published 2023)
